Read-outs that look alike come from different tables or passages of the source.
What was measured:
Assay type in all cases: cell-based
Jeko-1 cells = experiment: ATPLite anti-proliferation assay (GI) and synergy score, 120 h
Method: (§1) The endpoint readout of the anti-proliferation assay was based upon quantitation of ATP as an indicator of viable cells. Cells were thawed from a liquid nitrogen preserved state. Once cells had been expanded and divided at their expected doubling times, screening began. Cells were seeded in growth media in black 384-well tissue culture treated plates at 500 cells per well (except where noted in Analyzer). Cells were equilibrated in assay plates via centrifugation and placed in incubators attached to the Dosing Modules at 37° C. for twenty-four hours before treatment. […] These Tzero (T0) plates were read using ultra-sensitive luminescence on Envision Plate Readers. Treated assay plates were incubated with the compound for one hundred twenty hours. After one hundred twenty hours, plates were developed for endpoint analysis using ATPLite. All data points were collected via automated processes; quality controlled; and analyzed using Horizon CombinatoRx proprietary software. Assay plates were accepted if they pass the following quality control standards: relative luciferase values were consistent throughout the entire experiment, Z-factor scores were greater than 0.6, untreated/vehicle controls behaved consistently on the plate.
(§2) Horizon Discovery utilized Growth Inhibition (GI) as a measure of cell viability. The cell viability of vehicle was measured at the time of dosing (T0) and after one hundred twenty hours (T120). A GI reading of 0% represented no growth inhibition—cells treated with compound and T120 vehicle signals were matched. […] A GI 200% represents complete death of all cells in the culture well. Compounds reaching an activity plateau of GI 200% were considered cytotoxic. Horizon CombinatoRx calculates GI by applying the following test and equation: […]
(§3) To measure combination effects in excess of Loewe additivity, Horizon Discovery has devised a scalar measure to characterize the strength of synergistic interaction termed the Synergy Score. The Synergy Score was calculated as:
(§4) Synergy Score=log fx log fyΣmax(0,Idata)(Idata−ILoewe)
(§5) The fractional inhibition for each component agent and combination point in the matrix was calculated relative to the median of all vehicle-treated control wells. The Synergy Score equation integrated the experimentally-observed activity volume at each point in the matrix in excess of a model surface numerically derived from the activity of the component agents using the Loewe model for additivity. Additional terms in the Synergy Score equation (above) were used to normalize for various dilution factors used for individual agents and to allow for comparison of synergy scores across an entire experiment. The inclusion of positive inhibition gating or an Idata multiplier removed noise near the zero effect level, and biased results for synergistic interactions at that occur at high activity levels.
(§6) The cell viability of vehicle was measured at the time of dosing (T0) and after 120 h (T120). […] To measure combination effects, excess of Loewe additivity was used to characterize the strength of synergistic interaction, termed the synergy score. The assay and synergy score analysis were performed in accordance with the protocol set forth in Example 1B above.

JVM-2 cells = experiment: as above
Method: as §1, §2, §3, §4, §5, §6

JVM-13 cells = experiment: as above
Method: as §1, §2, §3, §4, §5, §6

Maver-1 cells = experiment: as above
Method: as §1, §2, §3, §4, §5, §6

Z-138 cells = experiment: as above
Method: as §1, §2, §3, §4, §5, §6

Mino cells = experiment: as above
Method: as §1, §2, §3, §4, §5, §6

Granta-519 cells = experiment: as above
Method: as §1, §2, §3, §4, §5, §6

Rec-1 cells = experiment: as above
Method: as §1, §2, §3, §4, §5, §6

PF-2 cells = experiment: as above
Method: as §1, §2, §3, §4, §5, §6

PF-1 cells = experiment: as above
Method: as §1, §2, §3, §4, §5, §6

JMP-1 cells = experiment: as above
Method: as §1, §2, §3, §4, §5, §6

U2932 cells = experiment: as above
Method: as §1, §2, §3, §4, §5, §6
The assay and synergy score analysis were performed in accordance with the protocol set forth in Example 3A above.

OCI-LY10 cells = experiment: CellTiter-Glo cell viability assay, four days (Example 1A); details: for EC50: Homo sapiens; for growth of cell line: OCI-LY10, single agent
Method: In vitro anti-proliferative activity of agents was assessed using CellTiter-Glo™ Assay (Promega), which quantifies cellular ATP level. Test compounds were dissolved in DMSO to prepare 10 mM stock solutions. […] For drug combination studies, a two or three fold horizontal serial dilution pattern was used for Compound B and combined with Idelalisib using a two, three, or four fold vertical serial dilution pattern. […] The final DMSO concentration in the test media was 0.2%. Each combination used replicates of four plates to generate sufficient data for evaluation of synergy scores. […] The assay growth medium for all lines was RPMI supplemented with 20% FBS and […] penicillin-streptomycin. Seeding density was optimized for growth rate over 96 hours for each cell line and was between 10,000-30,000 cells per well of 96 well plates. After four days incubation with agents at 37° C./5% CO2, the CellTiter-Glo™ assay was performed following the manufacturer's protocol. Relative luminescence units were quantified using a Biotek Synergy luminometer.
Data from a plate was excluded if either Z′<0.5 or the growth of the cell lines was less than one doubling in the four day assay period. Z′ was calculated using the formula: Z′=[1−((3(σstau+σDMSO))/(|μDMSO−μstau|)] where σstau and σDMSO are the standard deviation of the 100% inhibited staurosporine and 0% inhibited DMSO control wells, respectively. μDMSO and μstau are the mean of the […] control wells, respectively. The raw Cell Titer Glo signal was normalized according to the following formula: [(raw value)−(100% inhibited staurosporine control)]/[(DMSO control value)−(100% inhibited staurosporine control)].
EC50 was determined using GraphPad Prism or Dose Response software by fitting the data to a four parameters variable slope model. […] For combination studies, the EC50 at each test article concentration was determined from graphs of the EC50 of one compound at a fixed dose of second compound. The EC50 shift was calculated by taking the ratio of the EC50 of the single agent by the EC50 at the maximum dose of the second agent.
Synergy was analyzed using the MacSynergy II program, which calculates a theoretical additive value for the drug combination that is based on the values generated by each drug alone using the Bliss Independence mathematical model. The Bliss independence model assumes that each drug acts independently. The theoretical additive effect for each compound is calculated and then subtracted from the actual effect. Synergy is defined by greater than expected effects while antagonism is defined by less than expected effects. In this example, a synergy volume greater than 50 was considered significant. The EC50 values determined in drug combination studies represent a single experiment run in quadruplicate and therefore may differ slightly from the single agent EC50 values.

[1] = OCI-Ly10, OCI-LY10, bound stated for three ABC-DLBCL cell lines, read-out: EC50, growth inhibition, single agent

Row | Structure (SMILES) | Max. Effect (% GI) (Jeko-1 cells) | Max. Effect (% GI) (JVM-2 cells) | Max. Effect (% GI) (JVM-13 cells) | Max. Effect (% GI) (Maver-1 cells) | Max. Effect (% GI) (Z-138 cells) | Max. Effect (% GI) (Mino cells) | Max. Effect (% GI) (Granta-519 cells) | Max. Effect (% GI) (Rec-1 cells) | Max. Effect (% GI) (PF-2 cells) | Max. Effect (% GI) (PF-1 cells) | Max. Effect (% GI) (JMP-1 cells) | Max. Effect (% GI) (U2932 cells) | EC50 (OCI-LY10 cells; [1]) [nM] | growth of cell line (OCI-LY10 cells) | further results
1 | CC#CC(=O)N1CC[C@@H](n2c(=O)n(-c3ccc(Oc4ccccc4)cc3)c3c(N)ncnc32)C1 [Compound B, 6-amino-9-[(3R)-1-(2-butynoyl)-3-pyrrolidinyl]-7-(4-phenoxyphenyl)-7,9-dihydro-8H-purin-8-one] | 37 | 91 | 15 | 45 | 11 | 35 | 22 | 111 | 25 | 9 | 14 | 81 | < 26 | inhibited the growth | EC50 (OCI-LY10 cells; OCI-Ly10, OCI-LY-10, Idelalisib 0 nM, read-out: EC50 of Compound B in Combination with Idelalisib): 6 nM; EC50 (OCI-LY10 cells; OCI-Ly10, OCI-LY-10, Idelalisib 156 nM, read-out: EC50 of Compound B in Combination with Idelalisib): 3 nM; EC50 (OCI-LY10 cells; OCI-Ly10, OCI-LY-10, Idelalisib 625 nM, read-out: EC50 of Compound B in Combination with Idelalisib): 3 nM; Compound B EC50 shift (fold) (OCI-LY10 cells; OCI-LY-10, single agent EC50 / EC50 at maximum dose of Idelalisib): 2 fold
2 | CCC(Nc1ncnc2[nH]cnc12)c1nc2cccc(F)c2c(=O)n1-c1ccccc1 (centres unmarked) [Idelalisib, 2-(1-((9H-Purin-6-yl)amino)propyl)-5-fluoro-3-phenylquinazolin-4(3H)-one] | 73 | 146 | 92 | 48 | 11 | 34 | 72 | 163 | 113 | 29 | 69 | 61 | < 210 | inhibited the growth | EC50 (OCI-LY10 cells; OCI-Ly10, OCI-LY10, addition of Compound B at 6 nM, read-out: EC50 of idelalisib): 24 nM; EC50 (OCI-LY10 cells; OCI-Ly10, OCI-LY10, addition of Compound B at 12 nM, read-out: EC50 of idelalisib): 19 nM; EC50 (OCI-LY10 cells; OCI-Ly10, OCI-LY10, addition of Compound B at 25 nM, read-out: EC50 of idelalisib): 13 nM; EC50 (OCI-LY10 cells; OCI-Ly10, OCI-LY10, without Compound B, read-out: EC50 of idelalisib): 122 nM; EC50 (OCI-LY10 cells; OCI-Ly10, OCI-LY-10, Compound B 0 nM, read-out: EC50 of Idelalisib when Combined with Compound B): 440 nM; EC50 (OCI-LY10 cells; OCI-Ly10, OCI-LY-10, Compound B 5 nM, read-out: EC50 of Idelalisib when Combined with Compound B): 38 nM; EC50 (OCI-LY10 cells; OCI-Ly10, OCI-LY-10, Compound B 15 nM, read-out: EC50 of Idelalisib when Combined with Compound B): 22 nM; EC50 (OCI-LY10 cells; OCI-Ly10, OCI-LY-10, Compound B 45 nM, read-out: EC50 of Idelalisib when Combined with Compound B): 5 nM; Idelalisib EC50 shift (fold) (OCI-LY10 cells; OCI-LY-10, single agent EC50 / EC50 at maximum dose of Compound B): 88 fold

Reference: US20180353512A1, “COMBINATION THERAPIES FOR TREATING B-CELL MALIGNANCIES” (GILEAD SCIENCES, INC., priority 2015, published 2018)
